Test: gradient 5% acetonitrile 3 min, to 50% in 2 min, to 85% in 15 min, held 3 min, 100 µL/min
Settings: column: Zorbax Extend-C18 2.1 x 50 mm; eluents: water / acetonitrile, 0.1% formic acid
Method in brief: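 Pure standards were analyzed in mixtures of ~100 molecules using HPLC coupled to a quadrupole time-of-flight mass spectrometer, in both positive and negative ionization mode. Separation used a Zorbax Extend-C18 column (2.1 × 50 mm, 1.8 μm) at 100 μL/min, with water and acetonitrile each containing 0.1% formic acid. Dead and dwell volumes were 40 μL and 900 μL, and data were collected over 3 months. Retention time was read from computationally picked adduct peaks, each inspected manually.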

Work on `N#Cc1ccc(C(=O)Nc2cnn(-c3ncc(N4CCCC4)cn3)c2)cc1` yielded an RP-LC retention time of 798 s.
Work on `CC(C)CN(CC(C)C)C(=O)C1CCN(S(=O)(=O)c2ccc3c(c2)CCCC(=O)N3)CC1` yielded an RP-LC retention time of 851 s.
`COc1ccc(-c2nnc(CC(=O)N3CCCC3)o2)cc1` showed an RP-LC retention time of 677 s.
`O=C(Cn1c(=O)c2cccn2c2ccc(F)cc21)NCCc1cccs1` gave an RP-LC retention time of 822 s.
`Nc1nc(SCC(=O)NCC2CCCO2)n[nH]1` (configuration not stated) showed an RP-LC retention time of 469 s.
Compound `O=C(Cn1nc2c3cc(F)ccc3ncn2c1=O)Nc1ccc(Cl)cc1` has an RP-LC retention time of 744 s.
In the case of `Cc1ccc(S(=O)(=O)N2C[C@@H]3CN(S(=O)(=O)c4ccccc4F)C[C@H](C2)O3)cc1`, the RP-LC retention time is reported as 955 s.
For `CC(C)CC(=O)N1CCc2c([nH]c3ccccc23)C12C(=O)N(C)c1ccc(Br)cc12` (configuration not stated), the RP-LC retention time was 1040 s.
With `CC(C)c1noc(-c2cc(=O)n(CC(=O)Nc3ccc(F)c(Cl)c3)c3ccccc23)n1` the RP-LC retention time was 1100 s.
`COc1ccc(-c2nnc(COc3ccc(NC(=O)c4ccc(C)s4)cc3)o2)cc1` showed an RP-LC retention time of 921 s.
With `O=C(c1nnc(-c2ccc(S(=O)(=O)N3CCCCC3)cc2)o1)N1CCCC1` the RP-LC retention time was 760 s.
Compound `CCc1ccc(S(=O)(=O)NCc2c(-c3ccccc3)nc3sc(CC)nn23)cc1` has an RP-LC retention time of 1020 s.
Work on `CCc1ccc(CNC(=O)c2c(C)oc3nc(C)nc(N4CCCC4)c23)cc1` yielded an RP-LC retention time of 795 s.
`O=C(c1c(OCC2CC2)cc(=O)n2c1CCCCC2)N1CCN(c2ccccn2)CC1` showed an RP-LC retention time of 563 s.
Compound `COc1ccc(-c2cc(=O)n3c4ccccc4n(CC(=O)NCc4ccco4)c3n2)cc1` has an RP-LC retention time of 855 s.
With `Cc1ccsc1C(=O)Nc1ccc(-c2nnc3n2CCCC3)cc1` the RP-LC retention time was 666 s.
With `CCNC(=O)Cn1c(=O)c2cnc(-c3ccccc3)nc2n(CC)c1=O` the RP-LC retention time was 802 s.
Work on `CC(C)CCNC(=O)c1ccc2c(=O)n(-c3ccccc3)c(N3CCCC3)nc2c1` yielded an RP-LC retention time of 858 s.
In the case of `CCNC(=O)C1CC(=O)N(C2CCCCC2)C1` (configuration not stated), the RP-LC retention time is reported as 623 s.
`O=C(NC1CCN(c2cc(-c3cccs3)[nH]n2)C1)c1cccc(Cl)c1` (configuration not stated) gave an RP-LC retention time of 719 s.
For `COCC(=O)N1CCCN(C2=NS(=O)(=O)C(c3ccc(Cl)cc3)=C2C)CC1`, the RP-LC retention time was 723 s.
`CCCCNC(=O)CCCN1C(=O)CCn2nc(-c3cn(C)c4ccccc34)cc21` gave an RP-LC retention time of 781 s.
`CC(=O)N1CCc2cc(CNS(=O)(=O)Cc3ccccc3)ccc21` gave an RP-LC retention time of 750 s.
For `O=C(Nc1ccc(F)c(F)c1)c1cc2n(n1)CCCC2`, the RP-LC retention time was 887 s.
With `CCC(CO)Nc1nc2ccc(Cl)cc2c2ccccc12` (configuration not stated) the RP-LC retention time was 732 s.
For `COc1ccc(N2CC(c3nnc(NC(=O)COc4ccc(C)cc4)o3)CC2=O)cc1` (configuration not stated), the RP-LC retention time was 742 s.
In the case of `Brc1ccc(OCc2nn3c(-c4ccccn4)nnc3s2)cc1`, the RP-LC retention time is reported as 872 s.
`COC(=O)c1cnc(N2CCN(Cc3ccccc3)CC2)c2ccccc12` showed an RP-LC retention time of 682 s.
With `Cc1cc(=O)n(CC(=O)NCc2ccc(F)cc2F)c(N)n1` the RP-LC retention time was 596 s.
`CCC(C)NC(=O)CSc1ccc(-n2nccc2-c2ccc(OC)cc2)nn1` (configuration not stated) showed an RP-LC retention time of 989 s.
Work on `COCCCNC(=O)N1CCCN(C2=NS(=O)(=O)C(c3ccc(C)cc3)=C2C)CC1` yielded an RP-LC retention time of 730 s.
In the case of `O=C(Nc1ccc2c(c1)OCCO2)N1CC2(CCCCC2)CC1COc1ccncc1` (configuration not stated), the RP-LC retention time is reported as 604 s.
For `CC(C)COc1cc(=O)n2c(c1C(=O)NCC1CC1)CCCCC2`, the RP-LC retention time was 708 s.
Compound `O=C(Cn1nc(N2CCOCC2)c2ccccc2c1=O)Nc1ccccc1` has an RP-LC retention time of 742 s.
Compound `CCn1cc(C(=O)NCCc2cccs2)c(=O)c2cc(OC)ccc21` has an RP-LC retention time of 780 s.
For `c1ccc(-c2noc(COC3CCCN(C4CCOCC4)C3)n2)cc1` (configuration not stated), the RP-LC retention time was 628 s.
`CC(=O)Nc1cc(C(=O)NCc2ccccc2Br)c2ccc(C)nc2c1` showed an RP-LC retention time of 623 s.
